Source: PubChem BioAssay AID1259407 (Chemical Carcinogenesis Research Information System (CCRIS), 2018)
Activity calls are given as the source filed them. The rule behind the calls is not given here.

Tested on: CCRIS mutagenicity, Ames/micronucleus/aberration tests
Experiment: CCRIS mutagenicity studies
Settings: Test System: AMES SALMONELLA TYPHIMURIUM, Method: STANDARD PLATE

Q: What does the source list for `Cc1cc(N)c([N+](=O)[O-])cc1N`?
A: mutagenic call (Strain/Indicator: TA98, Metabolic Activation: NONE): inactive; negative; mutagenic call (Strain/Indicator: TA98, Metabolic Activation: RAT, LIVER, S-9, AROCLOR 1254): active; positive; mutagenic call (Strain/Indicator: TA100, Metabolic Activation: NONE): inactive; negative; mutagenic call (Strain/Indicator: TA100, Metabolic Activation: RAT, LIVER, S-9, AROCLOR 1254): inactive; negative; mutagenic call (Strain/Indicator: TA1535, Metabolic Activation: NONE): inactive; negative; mutagenic call (Strain/Indicator: TA1535, Metabolic Activation: RAT, LIVER, S-9, AROCLOR 1254): inactive; negative; mutagenic call (Strain/Indicator: TA1537, Metabolic Activation: NONE): inactive; negative; mutagenic call (Strain/Indicator: TA1537, Metabolic Activation: RAT, LIVER, S-9, AROCLOR 1254): active; positive; mutagenic call (Strain/Indicator: TA1538, Metabolic Activation: NONE): inactive; negative; mutagenic call (Strain/Indicator: TA1538, Metabolic Activation: RAT, LIVER, S-9, AROCLOR 1254): active; positive
